What was measured:
estrogen receptor [1] = target: T1, estrogen receptor (Homo sapiens, UniProt P03372); assay: 2X VIT ERE Transfection Assay (luciferase); assay type: cell-based; parameters: expressed in transfected cells; host or cells: CHO (Chinese Hamster Ovary) cells, stably transfected; conditions: 24 h; read-out: % Activation
T1 sequence (P03372 1-595): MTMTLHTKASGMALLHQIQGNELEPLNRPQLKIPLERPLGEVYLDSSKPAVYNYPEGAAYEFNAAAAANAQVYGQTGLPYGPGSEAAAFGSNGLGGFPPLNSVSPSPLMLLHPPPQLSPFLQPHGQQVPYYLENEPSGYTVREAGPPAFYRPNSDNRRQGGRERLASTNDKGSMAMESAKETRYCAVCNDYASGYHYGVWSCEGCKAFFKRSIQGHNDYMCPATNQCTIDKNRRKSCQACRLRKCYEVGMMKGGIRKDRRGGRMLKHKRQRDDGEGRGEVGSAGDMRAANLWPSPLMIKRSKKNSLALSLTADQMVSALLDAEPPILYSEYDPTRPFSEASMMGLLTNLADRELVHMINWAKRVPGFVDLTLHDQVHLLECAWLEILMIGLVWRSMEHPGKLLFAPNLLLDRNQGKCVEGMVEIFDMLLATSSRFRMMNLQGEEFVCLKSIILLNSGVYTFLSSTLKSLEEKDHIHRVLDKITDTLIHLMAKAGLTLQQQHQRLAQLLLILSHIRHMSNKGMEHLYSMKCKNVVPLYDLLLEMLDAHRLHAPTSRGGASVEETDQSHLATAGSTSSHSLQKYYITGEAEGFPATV

Ishikawa cells = assay: Ishikawa Cell Alkaline Phosphatase Assay; assay type: cell-based; conditions: Homo sapiens, 48 h, read-out: % Activation
Description: Ishikawa Cell Alkaline Phosphatase Assay
Cell Maintenance and Treatment
Ishikawa cells were maintained in DMEM/F12 (50%:50%) containing phenol red+10% fetal bovine serum and the medium was supplemented with 2 mM Glutamax, 1% Pen/Strap and 1 mM sodium pyruvate. Five days prior to the beginning of each experiment (treatment of cells) the medium was changed to phenol red-free DMEM/F12+10% dextran coated charcoal stripped serum. On the day before treatment, cells were harvested using 0.5% trypsin/EDTA and plated at a density of 5×10^4 cells/well in 96-well tissue culture plates. […] Cells were treated for 48 h prior to assay. […] Sample population for at each dose was n=8.
Alkaline Phosnhatase Assay
At the end of 48 h the media is aspirated and cells are washed three times with phosphate buffered saline (PBS). 50 μL of lysis buffer (0.1M Tris-HCl, pH 9.8, 0.2% Triton X-100) is added to each well. Plates are placed at -80° C. for a minimum of 15 minutes. Plates are thawed at 37° C. followed by the addition of 150 μL of 0.1M Tris-HCl, pH 9.8, containing 4 mM para-nitrophenylphosphate (pNPP) to each well (final concentration, 3 mM pNPP).
Absorbance and slope calculations were made using the KineticCalc Application program (Bio-Tek Instruments, Inc., Winooski, Vt.). Results are expressed as the mean±S.D. of the rate of enzyme reaction (slope) averaged over the linear portion of the kinetic reaction curve (optical density readings every 5 minutes for 30 minutes absorbance reading).
The four listed in the following were used as as reference standards:
A description of these methods is described by Holinka, C. F., Hata, H., Kuramoto, H. and Gurpide, E. (1986) Effects of steroid hormones and antisteroids on alkaline phosphatase activity in human endometrial cancer cells (Ishikawa Line). Cancer Research, 46:2771-2774, and by Littlefield, B. A., Gurpide, E., Markiewicz, L., McKinley, B. and Hochberg, R. B. (1990) A simple and sensitive microtiter plate estrogen bioassay based on stimulation alkaline phosphatase in Ishikawa cells; Estrogen action of D5 adrenal steroids. Endocrinology, 6:2757-2762.

estrogen receptor [2] = target: T1, estrogen receptor; assay: In vitro estrogen receptor binding assay (competition with [3H]-17β-estradiol); parameters: made in house; host or cells: CHO cells overexpressing the receptor (100,000 g cytosol)
bone [3] = conditions: rat, in vivo; cited from earlier work
uterine growth = conditions: ovariectomized rat, compared with Tamoxifen; cited from earlier work
uterus = conditions: in vivo; cited from earlier work
bone [4] = conditions: in humans; cited from earlier work

SMILES	Emax at 1 µM (estrogen receptor [1]) [%]	Emax (Ishikawa cells) [%]	RBA (Estrogen Receptor Affinity) (estrogen receptor [2])	ability to spare bone (bone [3])	stimulation of uterine growth (uterine growth)	agonism in the uterus (uterus)	effect on the bone (bone [4])
Cc1c(-c2ccc(O)cc2)n(Cc2ccc(C#CCN(C)C)cc2)c2ccc(O)cc12 [Example 4, 2-(4-Hydroxy-phenyl)-3-methyl-1-[4-(3-N,N-dimethyl-1-yl-prop-1-ynyl)-benzyl]-1H-indol-5-ol]	34	34	53	–	–	–	–
Cc1c(-c2ccc(O)cc2)n(Cc2ccc(C#CCN3CCCCC3)cc2)c2ccc(O)cc12 [Example 5, 2-(4-Hydroxy-phenyl)-3-methyl-1-[4-(3-piperidin-1-yl-prop-1-ynyl)-benzyl]-1H-indol-5-ol]	17	27	23	–	–	–	–
O=C(c1ccc(OCCN2CCCCC2)cc1)c1c(-c2ccc(O)cc2)sc2cc(O)ccc12 [Raloxifene]	–	5	–	maintaining the ability to spare bone	to a lesser extent than Tamoxifen	–	–
CC/C(=C(\c1ccccc1)c1ccc(OCCN(C)C)cc1)c1ccccc1 [Tamoxifen]	–	0	–	–	–	partial agonist in the uterus	estrogen agonist-like effect on the bone

From patent US5780497A, “2-phenyl-1-[4-(amino-1-yl-alk-1-ynyl)-benzyl]-1H-indol-5-ols as estrogenic agents” (American Home Products Corporation, priority 1997, dated 1998)
